Data taken from patent US20210094954A1, “PREPARATION METHODS AND APPLICATIONS OF 3,5-DISUBSTITUTED METHYLPYRAZOLO[1,5-A]PYRIMIDINE-7-HYDROXYLIC SALTS” (priority 2019, published 2021).
Like-named read-outs stand apart in the source and are kept apart here.

Legend:
[1] = test system: Staphylococcus aureus 43300 (MRSA); assay: antibacterial study in vivo, survival of infected kunming mice; conditions: for Survival days: 30 days of observation
Oral Candida = assay: microbe, parasite or virus in culture; assay type: cell-based; conditions: Candida
Peel fungus = assay: organism not typed; assay type: cell-based; conditions: 37° C., 24 hours; read-out: MIC values of in vitro antibacterial test results
[2] = test system: Streptococcus pneumoniae M2; assay: microbe, parasite or virus in culture; assay type: cell-based; conditions: Streptococcus pneumoniae, M2; 37° C., 24 hours; read-out: MIC values of in vitro antibacterial test results
Clostridium perfringens = assay: microbe, parasite or virus in culture; assay type: cell-based; conditions: Clostridium perfringens, 24 h, read-out: MIC values of in vitro antibacterial test results
[3] = test system: Streptococcus pneumoniae 6303 (PRSP); assay: microbe, parasite or virus in culture; assay type: cell-based; conditions: Streptococcus pneumoniae, PRSP, 24 h, read-out: MIC values of in vitro antibacterial test results
[4] = test system: Staphylococcus aureus 43300(MRSA); assay: microbe, parasite or virus in culture; assay type: cell-based; conditions: Staphylococcus aureus, MRSA
[5] = test system: F2518(VRE), Staphylococcus aureus resistant strain 43300(MRSA), 703 (MRSA), pneumococcal resistance bacteria 6303(PRSP); assay: microbe, parasite or virus in culture; assay type: cell-based; conditions: read-out: MIC values (μM)
[6] = test system: Staphylococcus aureus 703(MRSA); assay: microbe, parasite or virus in culture; assay type: cell-based; conditions: Staphylococcus aureus, MRSA
[7] = test system: Enterococcus faecalis F2518(VRE); assay: microbe, parasite or virus in culture; assay type: cell-based; conditions: Enterococcus faecalis, VRE, 24 h, read-out: MIC values of in vitro antibacterial test results
[8] = test system: Staphylococcus aureus 29231; assay: microbe, parasite or virus in culture; assay type: cell-based; conditions: Staphylococcus aureus, 29231; 37° C., 24 hours; read-out: MIC values of in vitro antibacterial test results
Bacillus subtilis 168 = assay: microbe, parasite or virus in culture; assay type: cell-based; conditions: Bacillus subtilis, 168; 37° C., 24 hours; read-out: MIC values of in vitro antibacterial test results
[9] = test system: Bacillus anthracis Bacillus 1; assay: microbe, parasite or virus in culture; assay type: cell-based; conditions: Bacillus anthracis, 24 h, read-out: MIC values of in vitro antibacterial test results
Diphtheria bacilli = assay: organism not typed; assay type: cell-based; conditions: 37° C., 24 hours; read-out: MIC values of in vitro antibacterial test results
[10] = test system: Streptococcus agalactia B group; assay: microbe, parasite or virus in culture; assay type: cell-based; conditions: Streptococcus; 37° C., 24 hours; read-out: MIC values of in vitro antibacterial test results
[11] = test system: Enterococcus faecalis 29212; assay: microbe, parasite or virus in culture; assay type: cell-based; conditions: Enterococcus faecalis, 29212; 37° C., 24 hours; read-out: MIC values of in vitro antibacterial test results
Bacillus cereus 2 = assay: microbe, parasite or virus in culture; assay type: cell-based; conditions: Bacillus cereus, 2; 37° C., 24 hours; read-out: MIC values of in vitro antibacterial test results
[12] = test system: Streptococcus pneumoniae 10351; assay: microbe, parasite or virus in culture; assay type: cell-based; conditions: Streptococcus pneumoniae, 10351; 37° C., 24 hours; read-out: MIC values of in vitro antibacterial test results
[13] = 37° C., 24 hours, read-out: MIC values of in vitro antibacterial test results
[14] = 24 h, read-out: MIC values of in vitro antibacterial test results

| SMILES | MIC (Oral Candida; [13]) [µg/mL] | MIC (Peel fungus) [µg/mL] | MIC [2] [µg/mL] | MIC (Clostridium perfringens) [µg/mL] | MIC [3] [µg/mL] | MIC [4, 14] [µg/mL] | MIC [5] [µg/mL] | MIC [6, 14] [µg/mL] | MIC [7] [µg/mL] | MIC [8] [µg/mL] | MIC (Bacillus subtilis 168) [µg/mL] | MIC [9] [µg/mL] | MIC (Diphtheria bacilli) [µg/mL] | MIC [10] [µg/mL] | MIC [11] [µg/mL] | MIC (Bacillus cereus 2) [µg/mL] | MIC [12] [µg/mL] | MIC (Oral Candida; read-out: MIC values (μM)) [µg/mL] | other results |
| --- | --- | --- | --- | --- | --- | --- | --- | --- | --- | --- | --- | --- | --- | --- | --- | --- | --- | --- | --- |
| O=C(O)c1cn(C2CC2)c2cc(N3CCNCC3)c(F)cc2c1=O [Ciprofloxacin, reference compound] |  |  |  |  |  |  |  |  |  |  |  |  |  |  |  |  |  |  | Survival days ([1]; dosage 20 mg/kg): 3.4 days; Life extension rate (%) ([1]; dosage 20 mg/kg, versus blank group): 161.5% |
| Cc1nn2c([O-])cc(-c3ccc([N+](=O)[O-])cc3)nc2c1-c1ccc(F)cc1F.[Na+] [Compound 3, Sodium 3-(2,4-difluorophenyl)-2-methyl-5-(4-nitrophenyl) pyrazolo[1,5-α]pyrimidin-7-olate] | > 150 | > 150 | < 100 | > 150 | < 100 | < 50 | < 100 | < 50 | < 150 | < 100 | < 100 | > 150 | > 150 | > 150 | < 100 | < 100 | < 100 |  | MIC ([4]; read-out: MIC values (μM)): < 50 µg/mL; MIC ([6]; read-out: MIC values (μM)): < 50 µg/mL; Survival days ([1]; dosage 30 mg/kg): 4.0 days |
| Cc1nn2c([O-])cc(-c3ccc(N(C)C)cc3)nc2c1-c1ccc(F)cc1F.[Na+] [Compound 5, Sodium 3-(2,4-difluorophenyl)-5-(4-(dimethylamino)phenyl)-2-methylpyrazolo[1,5-α]pyrimidin-7-olate] | < 100 | < 150 | < 100 | > 150 | > 150 | < 150 |  | < 150 | < 150 | > 150 | > 150 | > 150 | > 150 | > 150 | < 150 | < 150 | > 150 | < 100 | Survival days ([1]; dosage 30 mg/kg): 2.6 days |
| Cc1nn2c([O-])cc(-c3ccc([N+](=O)[O-])cc3)nc2c1-c1ccc(F)cc1F.[K+] [Compound 23, Potassium 3-(2,4-difluorophenyl)-2-methyl-5-(4-nitrophenyl)pyrazolo[1,5-α]pyrimidin-7-olate] | < 100 | < 150 | < 100 | > 150 | > 150 | < 100 | < 100 | < 150 | < 150 | > 150 | > 150 | > 150 | > 150 | > 150 | < 150 | < 100 | > 150 | < 100 |  |
| Cc1nn2c([O-])cc(-c3ccc(N(C)C)cc3)nc2c1-c1ccc(F)cc1F.[K+] [Compound 24, Potassium 3-(2,4-difluorophenyl)-5-(4-(dimethylamino)phenyl)-2-methylpyrazolo[1,5-α]pyrimidin-7-olate] | < 100 | < 150 | < 100 | < 150 | < 150 | < 150 | < 100 | < 100 | < 150 | < 100 | < 100 | > 150 | > 150 | > 150 | < 100 | < 100 | < 100 | < 100 |  |
| Cc1nn2c([O-])cc(-c3ccc(S(N)(=O)=O)cc3)nc2c1-c1ccc(F)cc1F.[K+] [Compound 25, Potassium 3-(2,4-difluorophenyl)-2-methyl-5-(4-sulfamoylphenyl)pyrazolo[1,5-α]pyrimidin-7-olate] | < 100 | < 150 | < 100 | > 150 | > 150 | < 150 | < 100 | < 150 | < 150 | > 150 | > 150 | > 150 | > 150 | > 150 | < 150 | < 150 | > 150 | < 100 |  |
| Cc1nn2c([O-])cc(-c3ccc(C(F)(F)F)nc3)nc2c1-c1ccc(F)cc1F.[K+] [Compound 26, Potassium 3-(2,4-difluorophenyl)-2-methyl-5-(6-(trifluoromethyl)pyridin-3-yl)pyrazolo[1,5-α]pyrimidin-7-olate] | < 100 | < 150 | < 150 | > 150 | < 150 | < 100 | < 100 | < 100 | < 150 | < 100 | < 100 | > 150 | > 150 | < 150 | < 100 | < 100 | < 150 | < 100 |  |
| Cc1nn2c([O-])cc(-c3ccc(C#N)nc3)nc2c1-c1ccc(F)cc1F.[K+] [Compound 27, Potassium 5-(6-cyanopyridin-3-yl)-3-(2,4-difluorophenyl)-2-methylpyrazolo[1,5-α]pyrimidin-7-olate] | < 100 | > 150 | < 100 | < 150 | < 100 | < 150 | < 100 | < 100 | < 150 | < 100 | < 100 | > 150 | < 150 | > 150 | < 100 | < 100 | < 100 | < 100 |  |
| Cc1nn2c([O-])cc(-c3ccc(S(N)(=O)=O)nc3)nc2c1-c1ccc(F)cc1F.[Na+] [Compound 29, Sodium 3-(2,4-difluorophenyl)-2-methyl-5-(6-sulfamoylpyridin-3-yl)pyrazolo[1,5-α]pyrimidin-7-olate] | < 100 | < 150 | < 100 | > 150 | > 150 | < 100 | < 100 | < 150 | < 150 | > 150 | > 150 | > 150 | > 150 | > 150 | < 150 | < 150 | > 150 | < 100 |  |
| Cc1nn2c([O-])cc(-c3ccc(C(=O)NCCN(C)C)cc3)nc2c1-c1ccc(F)cc1F.[Na+] [Compound 31, Sodium 3-(2,4-difluorophenyl)-5-(4-((2-(dimethylamino)ethyl)carbamoyl)phenyl)-2-methylpyrazolo[1,5-α]pyrimidin-7-olate] | < 100 | > 150 | < 100 | > 150 | < 100 | < 150 | < 100 | < 100 | < 150 | < 100 | < 100 | > 150 | > 150 | > 150 | < 100 | < 100 | < 100 | < 100 |  |
| Cc1nn2c([O-])cc(-c3ccc(C(N)=O)nc3)nc2c1-c1ccc(F)cc1F.[Na+] [Compound 32] | < 100 | < 150 | < 100 | > 150 | < 150 | < 100 | < 100 | < 150 | < 150 | > 150 | > 150 | > 150 | > 150 | > 150 | < 150 | < 100 | > 150 | < 100 |  |
| CC(=O)Oc1ccc(-c2cc([O-])n3nc(C)c(-c4ccc(F)cc4F)c3n2)cn1.[Na+] [Compound 33, Sodium 5-(6-acetoxypyridin-3-yl)-3-(2,4-difluorophenyl)-2-methylpyrazolo[1,5-α]pyrimidin-7-olate] | < 150 | < 150 | < 100 | > 150 | > 150 | < 100 | < 100 | < 150 | < 150 | > 150 | > 150 | > 150 | > 150 | > 150 | < 100 | < 100 | > 150 | < 100 |  |
